Data set [1] can be described thus: Apparent permeability of the compound from apical to basolateral side of MDCK2 cells at 5 uM after 120 mins by LC/MS/MS analysis. In kind it is ADME, cell-based, Canis lupus familiaris, MDCK-II. The conditions noted are these: dog, MDCK.
For data set [2], the target named is Cathepsin D (Homo sapiens, UniProt P07339). As to the kind of experiment: Inhibition of cathepsin-D (unknown origin) using C-terminal biotinylated peptide substrate treated 30 mins before addition of peptide substrate measured after 110 mins by fluorescence polarization assay.
Sequence of Cathepsin D (P07339 65-162 limits assumed): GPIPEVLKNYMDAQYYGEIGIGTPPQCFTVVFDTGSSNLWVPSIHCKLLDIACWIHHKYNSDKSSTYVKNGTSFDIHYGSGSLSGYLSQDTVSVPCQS
Sequence of Cathepsin D (P07339 169-412 limits assumed): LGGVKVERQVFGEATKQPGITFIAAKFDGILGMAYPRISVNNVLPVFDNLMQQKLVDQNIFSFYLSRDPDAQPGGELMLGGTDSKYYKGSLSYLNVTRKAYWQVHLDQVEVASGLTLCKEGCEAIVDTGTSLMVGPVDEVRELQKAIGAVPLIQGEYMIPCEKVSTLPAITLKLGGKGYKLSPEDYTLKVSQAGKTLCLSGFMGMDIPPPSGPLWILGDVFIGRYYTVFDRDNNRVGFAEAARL
Data set [3] addresses Beta-secretase 1 (Homo sapiens, UniProt P56817). Briefly: Inhibition of recombinant BACE-1 (unknown origin) expressed in Escherichia coli using biotinylated peptide substrate treated 20 mins before substrate addition measured after 3 hrs by fluorescence polarization assay. In general terms: In fluorescence polarisation assays a small probe gives low polarisation when free and higher when bound to something large.

The nature of data set [4]: Lipophilicity, log P of the compound. Format: physicochemical. The conditions noted are these: octanol/water.
Data set [5] in a line: Dissociation constant, pKa of the compound. In kind it is physicochemical.

The values that follow come from ChEMBL document CHEMBL2406984, “Design and synthesis of hydroxyethylamine (HEA) BACE-1 inhibitors: prime side chromane-containing inhibitors” (Bioorg Med Chem Lett, 2013).

Each structure is given as a SMILES string.

Sequence of Beta-secretase 1 (P56817 whole entry): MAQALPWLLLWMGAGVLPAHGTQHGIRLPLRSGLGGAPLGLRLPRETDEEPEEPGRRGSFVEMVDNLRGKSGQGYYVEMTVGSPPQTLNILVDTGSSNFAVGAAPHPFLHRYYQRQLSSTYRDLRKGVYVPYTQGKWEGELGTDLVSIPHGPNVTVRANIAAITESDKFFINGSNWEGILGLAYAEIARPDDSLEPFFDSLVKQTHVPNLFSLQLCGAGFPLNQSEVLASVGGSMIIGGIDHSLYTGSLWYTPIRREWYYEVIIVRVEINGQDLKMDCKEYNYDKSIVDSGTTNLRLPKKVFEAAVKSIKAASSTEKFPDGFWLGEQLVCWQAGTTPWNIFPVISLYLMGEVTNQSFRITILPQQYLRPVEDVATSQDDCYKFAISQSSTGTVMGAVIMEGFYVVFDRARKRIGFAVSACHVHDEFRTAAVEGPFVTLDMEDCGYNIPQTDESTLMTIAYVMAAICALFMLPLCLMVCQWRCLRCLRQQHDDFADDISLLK

As for `CC(=O)N[C@@H](Cc1cc(F)cc(F)c1)[C@H](O)CN[C@H]1CC(C)(C)Oc2ccc(OC(C)(C)C)cc21`, the Papp A→B (as a rule, the apparent permeability from the apical to the basolateral side of a cell layer) at 2 h, 5 µM in data set [1] was 1.1 ×10⁻⁶ cm/s. Further, the IC50 – broadly, the concentration that gives 50% inhibition – amounted to 374 nM in data set [2] and 690 nM in data set [3].
In the case of `CC(=O)N[C@@H](Cc1cc(F)cc(F)c1)[C@H](O)CN[C@H]1CCN(C)c2ccc(CC(C)(C)C)cc21`, the 50% inhibitory concentration (IC50) is 68 nM in data set [2] and 643 nM in data set [3].
For the molecule `CC(=O)N[C@@H](Cc1cc(F)cc(F)c1)[C@H](O)CN[C@H]1CCCc2ccc(CC(C)C)cc21`, in data set [3], the IC50 was found to be 93 nM.
`CC(=O)N[C@@H](Cc1cc(F)cc(F)c1)[C@H](O)CN[C@H]1CS(=O)(=O)Cc2ccc(CC(C)(C)C)cc21`: the IC50 in data set [2] stood at 362 nM; in data set [3], 42 nM.
For the molecule `CC(=O)N[C@@H](Cc1cc(F)cc(F)c1)[C@H](O)CN[C@H]1CCOc2ccc(CC(C)(C)F)cc21`, the apparent permeability from apical to basolateral (Papp A→B) at 2 h, 5 µM in data set [1] turned out to be 8.3 ×10⁻⁶ cm/s. The IC50 stood at 80 nM in data set [2] and 148 nM in data set [3].
On the same counts, the results for `CC(=O)N[C@@H](Cc1cc(F)cc(F)c1)[C@H](O)CN[C@H]1CCOc2ccc(OC3CCCO3)cc21` (mixture of isomers) are 11 ×10⁻⁶ cm/s, 286 nM and 1320 nM.
Consider `CC(=O)N[C@@H](Cc1cc(F)cc(F)c1)[C@H](O)CN[C@H]1CCOc2ccc(CC(C)(C)C)cc21`, for which the apical-to-basolateral permeability (Papp A→B) at 2 h, 5 µM in data set [1] was 3 ×10⁻⁶ cm/s. Besides, the IC50 in data set [2] was 12 nM; in data set [3], 46 nM.
In the case of `CC(=O)N[C@@H](Cc1cc(F)cc(F)c1)[C@H](O)CN[C@H]1CCCc2ccc(CC(C)(C)C)cc21`, the logP (as a rule, the decadic logarithm of the partition coefficient of the neutral form, usually between octanol and water) in data set [4] turned out to be 4.9. The apical-to-basolateral permeability (Papp A→B) at 2 h, 5 µM in data set [1] turned out to be 0.3 ×10⁻⁶ cm/s. Further, the pKa (as a rule, the pH at which an ionisable group is half protonated) in data set [5] stood at 8.9. Also, the concentration for half-maximal inhibition (IC50) amounted to 8 nM in data set [2] and 45 nM in data set [3].
On the same counts, the results for `CCc1ccc2c(c1)[C@@H](NC[C@@H](O)[C@H](Cc1cc(F)cc(F)c1)NC(C)=O)CS(=O)(=O)C2` are 3.2, 0.3 ×10⁻⁶ cm/s, 5.8, 2840 nM and 116 nM.
Take `CC(=O)N[C@@H](Cc1cc(F)cc(F)c1)[C@H](O)CN[C@H]1CCOc2ccc(OC3CCOC3)cc21` (mixture of isomers): the apparent permeability from apical to basolateral (Papp A→B) at 2 h, 5 µM in data set [1] turned out to be 7.1 ×10⁻⁶ cm/s. Besides, the half-inhibitory concentration (IC50) is 255 nM in data set [2] and 858 nM in data set [3].
On the same counts, the results for `CC(=O)N[C@@H](Cc1cc(F)cc(F)c1)[C@H](O)CN[C@H]1CCOc2ccc(CC(C)(C)C#N)cc21` are 6.4 ×10⁻⁶ cm/s, 70 nM and 60 nM.
`CC(=O)N[C@@H](Cc1cc(F)cc(F)c1)[C@H](O)CN[C@H]1CC(C)(C)Oc2ccc(CC(C)(C)C)cc21`: the Papp A→B at 2 h, 5 µM in data set [1] turned out to be 0.3 ×10⁻⁶ cm/s. Moreover, the half-maximal inhibitory concentration (IC50) in data set [2] is 18 nM; in data set [3] it was 8 nM.
As for `CC(=O)N[C@@H](Cc1cc(F)cc(F)c1)[C@H](O)CN[C@H]1COCc2ccc(CC(C)(C)C)cc21`, in data set [3], the IC50 came out at 19700 nM.
On to `CC(=O)N[C@@H](Cc1cc(F)cc(F)c1)[C@H](O)CN[C@H]1CC(C)(C)Oc2ccc(CC(C)(C)C#N)cc21`, for which the Papp A→B at 2 h, 5 µM in data set [1] was 2.5 ×10⁻⁶ cm/s. In addition, the results for the half-maximal inhibitory concentration (IC50) in data set [2] and in data set [3] were 8 nM and 6 nM, respectively.
For the molecule `CCC[C@]1(C)C[C@H](NC[C@@H](O)[C@H](Cc2cc(F)cc(F)c2)NC(C)=O)c2cc(CC(C)(C)C)ccc2O1`, the figures for the IC50 in data set [2] and in data set [3] were 2 nM and 15 nM, respectively.
On the same counts, the results for `CCc1ccc2c(c1)[C@@H](NC[C@@H](O)[C@H](Cc1cc(F)cc(F)c1)NC(C)=O)CCC2` are 126 nM and 538 nM.
On the same counts, the results for `CC(=O)N[C@@H](Cc1cc(F)cc(F)c1)[C@H](O)CN[C@H]1CCCc2ccc(C(C)(C)C)cc21` are 74 nM and 378 nM.
In the case of `CC(=O)N[C@@H](Cc1cc(F)cc(F)c1)[C@H](O)CN[C@H]1CC(C)(C)Oc2ccc(OC(F)(F)F)cc21`, in data set [1], the Papp A→B at 2 h, 5 µM stood at 1.2 ×10⁻⁶ cm/s. For the same molecule, the IC50 is 59 nM in data set [2] and 89 nM in data set [3].
Regarding `CC(=O)N[C@@H](Cc1cc(F)cc(F)c1)[C@H](O)CN[C@H]1CCOc2ccc(CC(C)(C)C(F)F)cc21`, the 50% inhibitory concentration (IC50) stood at 478 nM in data set [2] and 1300 nM in data set [3].
Take `CC(=O)N[C@@H](Cc1cc(F)cc(F)c1)[C@H](O)CN[C@H]1CCOc2ccc(OC3CCCC3)cc21`: the values for the half-inhibitory concentration (IC50) in data set [2] and in data set [3] were 145 nM and 221 nM, respectively.
Regarding `CC(=O)N[C@@H](Cc1cc(F)cc(F)c1)[C@H](O)CN[C@H]1CC(C)(C)Oc2ccc(CC(C)(F)F)cc21`, the apparent permeability from apical to basolateral (Papp A→B) at 2 h, 5 µM in data set [1] came out at 1.7 ×10⁻⁶ cm/s. The IC50 in data set [2] stood at 16 nM; in data set [3] it was 9 nM.
`COC[C@@]1(C)C[C@H](NC[C@@H](O)[C@H](Cc2cc(F)cc(F)c2)NC(C)=O)c2cc(CC(C)(C)C)ccc2O1` (mixture of isomers): the 50% inhibitory concentration (IC50) worked out at 5 nM in data set [2] and 9 nM in data set [3].
On the same counts, the results for `CCCCc1ccc2c(c1)[C@@H](NC[C@@H](O)[C@H](Cc1cc(F)cc(F)c1)NC(C)=O)CCC2` are 77 nM and 574 nM.
Regarding `CC(=O)N[C@@H](Cc1cc(F)cc(F)c1)[C@H](O)CN[C@H]1CCOc2ccc(OC(C)C)cc21`, in data set [1], the apparent permeability from apical to basolateral (Papp A→B) at 2 h, 5 µM worked out at 11.2 ×10⁻⁶ cm/s. Further, the IC50 was determined as 429 nM in data set [2] and 414 nM in data set [3].
On the same counts, the results for `CC(=O)N[C@@H](Cc1cc(F)cc(F)c1)[C@H](O)CN[C@H]1CCOc2ccc(CC(C)(F)F)cc21` are 14.6 ×10⁻⁶ cm/s, 144 nM and 186 nM.
Take `CC(=O)N[C@@H](Cc1cc(F)cc(F)c1)[C@H](O)CN[C@H]1CCCc2ccc(Cc3ccccc3)cc21`: the IC50 in data set [2] was 251 nM; in data set [3], 4700 nM.
On the same counts, the results for `CC(=O)N[C@@H](Cc1cc(F)cc(F)c1)[C@H](O)CN[C@H]1CC2(COC2)Oc2ccc(CC(C)(C)C)cc21` are 22500 nM and 27100 nM.
On the same counts, the results for `CC(=O)N[C@@H](Cc1cc(F)cc(F)c1)[C@H](O)CN[C@H]1CC2(CC2)Oc2ccc(CC(C)(C)C)cc21` (mixture of isomers) are 6 nM and 22 nM.
On the same counts, the results for `CC(=O)N[C@@H](Cc1cc(F)cc(F)c1)[C@H](O)CN[C@H]1CS(=O)(=O)Cc2ccc(C(C)C)cc21` are 940 nM and 127 nM.
For `CCC[C@@]1(C)C[C@H](NC[C@@H](O)[C@H](Cc2cc(F)cc(F)c2)NC(C)=O)c2cc(CC(C)(C)C)ccc2O1`, the IC50 in data set [2] was 1 nM; in data set [3], 6 nM.
